According to EPA's CvTdb concentration-time database:

Columns and labels:
[1] = test system: rat; assay: concentration in blood after dosing; negative times count back from the end of exposure; details: dosed: trichloroethylene, inhalation, duration: 4 hr
[2] = test system: Rat; assay: concentration in brain after dosing
[3] = test system: Rat; assay: concentration in liver after dosing; details: dosed: Fluorotelomer alcohol 8+2, oral
[4] = test system: Rat; assay: concentration in kidney after dosing; details: dosed: Fluorotelomer alcohol 8+2, oral
[5] = test system: Rat; assay: concentration in plasma after dosing

ClC=C(Cl)Cl [trichloroethylene]
[1]
Details | concentration in blood [ng/mL]
-3.5 h, 600 ppm, female, F344, during exposure | 16800
-3.459 h, 600.4 ppm, female, F344, during exposure | 16200
-0.4732 h, 600.4 ppm, female, F344, during exposure | 29000
0.203 h, 50 ppm, male, Sprague Dawley | 936
0.2286 h, 50 ppm, male, Sprague Dawley | 807
0.2287 h, 50 ppm, male, Sprague Dawley | 1080
0.2341 h, 50 ppm, male, Sprague Dawley | 1130
0.2372 h, 600 ppm, female, F344 | 21800
0.2627 h, 600.4 ppm, female, F344 | 18800
0.4545 h, 50 ppm, male, Sprague Dawley | 1170
0.477 h, 50 ppm, male, Sprague Dawley | 624
0.4781 h, 50 ppm, male, Sprague Dawley | 461
0.4921 h, 50 ppm, male, Sprague Dawley | 758
0.4935 h, 600 ppm, female, F344 | 16100
0.5358 h, 600.4 ppm, female, F344 | 13400
0.9773 h, 600 ppm, female, F344 | 4980
0.9775 h, 50 ppm, male, Sprague Dawley | 548
0.9966 h, 50 ppm, male, Sprague Dawley | 412
1.025 h, 600.4 ppm, female, F344 | 8560
1.027 h, 50 ppm, male, Sprague Dawley | 319
1.739 h, 600 ppm, female, F344 | 2970
1.944 h, 50 ppm, male, Sprague Dawley | 181
1.987 h, 50 ppm, male, Sprague Dawley | 389
2.009 h, 50 ppm, male, Sprague Dawley | 301
2.054 h, 600.4 ppm, female, F344 | 3600
4.006 h, 50 ppm, male, Sprague Dawley | 217
4.049 h, 50 ppm, male, Sprague Dawley | 207
250 s, 600 ppm, female, F344 | 24700

[1], 50 ppm, male, Sprague Dawley, during exposure
Details | concentration in blood [ng/mL]
-313 s | 1440
-72 s | 1050
-67 s | 1720
-14 s | 2070
-3.578 h | 917
-3.528 h | 611
-3.504 h | 680
-3.419 h | 998
-3.27 h | 824
-3.051 h | 1330
-3.011 h | 745
-3.008 h | 1370
-2.984 h | 1290
-2.064 h | 1650
-2.027 h | 1110
-2.007 h | 1380
-1.985 h | 1950
-1.07 h | 1850
-1.031 h | 1920
-1.023 h | 1010
-1.012 h | 1700

O=C(O)CCC(F)(F)C(F)(F)C(F)(F)C(F)(F)C(F)(F)C(F)(F)C(F)(F)F [Fluorotelomer acid 7+3]
Details | concentration in brain [ng/g] | concentration in plasma [ng/mL]
[2], 0.5 h, dosed: Fluorotelomer alcohol 8+2, 24 mg/kg, oral, Male, Harlan Sprague Dawley | 109 | –
[2], 0.5 h, dosed: Fluorotelomer alcohol 8+2, 24 mg/kg, oral, Male, Harlan Sprague Dawley - this seems too small | 47.2 | –
[2], 0.5 h, dosed: Fluorotelomer alcohol 8+2, 80 mg/kg, oral, Female, Harlan Sprague Dawley | 139 | –
[2], 1 h, dosed: Fluorotelomer alcohol 8+2, 24 mg/kg, oral, Male, Harlan Sprague Dawley | 130 | –
[2], 1 h, dosed: Fluorotelomer alcohol 8+2, 80 mg/kg, oral, Female, Harlan Sprague Dawley | 391 | –
[2], 3 h, dosed: Fluorotelomer alcohol 8+2, 24 mg/kg, oral, Male, Harlan Sprague Dawley | 425 | –
[2], 3 h, dosed: Fluorotelomer alcohol 8+2, 80 mg/kg, oral, Female, Harlan Sprague Dawley | 870 | –
[2], 6 h, dosed: Fluorotelomer alcohol 8+2, 24 mg/kg, oral, Male, Harlan Sprague Dawley | 365 | –
[2], 6 h, dosed: Fluorotelomer alcohol 8+2, 80 mg/kg, oral, Female, Harlan Sprague Dawley | 1250 | –
[2], 12 h, dosed: Fluorotelomer alcohol 8+2, 24 mg/kg, oral, Male, Harlan Sprague Dawley | 222 | –
[2], 12 h, dosed: Fluorotelomer alcohol 8+2, 80 mg/kg, oral, Female, Harlan Sprague Dawley | 632 | –
[5], 0.25 h, dosed: 678-39-7, 12 mg/kg, iv, Male, F344 | – | 45.5
[5], 0.25 h, dosed: 678-39-7, 40 mg/kg, iv, Male, F344 | – | 80.9
[5], 0.25 h, dosed: Fluorotelomer alcohol 8+2, 12 mg/kg, oral, Male, Harlan Sprague Dawley | – | 21.6
[5], 0.5 h, dosed: 678-39-7, 12 mg/kg, iv, Male, F344 | – | 157
[5], 0.5 h, dosed: 678-39-7, 40 mg/kg, iv, Female, Harlan Sprague-Dawley | – | 400
[5], 0.5 h, dosed: 678-39-7, 40 mg/kg, iv, Male, F344 | – | 640
[5], 0.5 h, dosed: Fluorotelomer alcohol 8+2, 12 mg/kg, oral, Male, Harlan Sprague Dawley | – | 123
[5], 0.75 h, dosed: 678-39-7, 12 mg/kg, iv, Male, F344 | – | 242
[5], 0.75 h, dosed: 678-39-7, 40 mg/kg, iv, Female, Harlan Sprague-Dawley | – | 773
[5], 0.75 h, dosed: Fluorotelomer alcohol 8+2, 12 mg/kg, oral, Male, Harlan Sprague Dawley | – | 405
[5], 1 h, dosed: 678-39-7, 12 mg/kg, iv, Male, F344 | – | 455
[5], 1 h, dosed: 678-39-7, 40 mg/kg, iv, Female, Harlan Sprague-Dawley | – | 1490
[5], 1 h, dosed: Fluorotelomer alcohol 8+2, 12 mg/kg, oral, Male, Harlan Sprague Dawley | – | 317
[5], 3 h, dosed: 678-39-7, 12 mg/kg, iv, Male, F344 | – | 700
[5], 3 h, dosed: 678-39-7, 40 mg/kg, iv, Male, F344 | – | 2420
[5], 3 h, dosed: Fluorotelomer alcohol 8+2, 12 mg/kg, oral, Male, Harlan Sprague Dawley | – | 794
[5], 5 min, dosed: 678-39-7, 12 mg/kg, iv, Male, F344 | – | 8.32
[5], 5 min, dosed: 678-39-7, 40 mg/kg, iv, Male, F344 | – | 21.4
[5], 6 h, dosed: 678-39-7, 12 mg/kg, iv, Male, F344 | – | 762
[5], 6 h, dosed: 678-39-7, 40 mg/kg, iv, Male, F344 | – | 1630
[5], 6 h, dosed: Fluorotelomer alcohol 8+2, 12 mg/kg, oral, Male, Harlan Sprague Dawley | – | 619
[5], 9 h, dosed: 678-39-7, 12 mg/kg, iv, Male, F344 | – | 110
[5], 9 h, dosed: 678-39-7, 40 mg/kg, iv, Female, Harlan Sprague-Dawley | – | 366
[5], 9 h, dosed: 678-39-7, 40 mg/kg, iv, Male, F344 | – | 481
[5], 9 h, dosed: Fluorotelomer alcohol 8+2, 12 mg/kg, oral, Male, Harlan Sprague Dawley | – | 143
[5], 12 h, dosed: 678-39-7, 12 mg/kg, iv, Male, F344 | – | 63.3
[5], 12 h, dosed: 678-39-7, 40 mg/kg, iv, Female, Harlan Sprague-Dawley | – | 130
[5], 12 h, dosed: Fluorotelomer alcohol 8+2, 12 mg/kg, oral, Male, Harlan Sprague Dawley | – | 159
[5], 24 h, dosed: 678-39-7, 12 mg/kg, iv, Male, F344 | – | 98.6
[5], 24 h, dosed: 678-39-7, 40 mg/kg, iv, Female, Harlan Sprague-Dawley | – | 498
[5], 24 h, dosed: Fluorotelomer alcohol 8+2, 12 mg/kg, oral, Male, Harlan Sprague Dawley | – | 189
[5], 48 h, dosed: Fluorotelomer alcohol 8+2, 12 mg/kg, oral, Male, Harlan Sprague Dawley | – | 112
[5], 192 h, dosed: 678-39-7, 12 mg/kg, iv, Male, F344 | – | 22.5
[5], 192 h, dosed: 678-39-7, 40 mg/kg, iv, Male, F344 | – | 134
[5], 192 h, dosed: Fluorotelomer alcohol 8+2, 12 mg/kg, oral, Male, Harlan Sprague Dawley | – | 42.1
[5], 192 h, dosed: Fluorotelomer alcohol 8+2, 24 mg/kg, oral, Male, Harlan Sprague Dawley | – | 53

Details | concentration in kidney, [4] [ng/g] | concentration in liver, [3] [ng/g]
0.5 h, 24 mg/kg, Male, Harlan Sprague Dawley | 224 | 300
0.5 h, 24 mg/kg, Male, Harlan Sprague Dawley - this seems too small | 129 | 195
0.5 h, 80 mg/kg, Female, Harlan Sprague Dawley | 418 | 1070
1 h, 24 mg/kg, Male, Harlan Sprague Dawley | 291 | 784
1 h, 80 mg/kg, Female, Harlan Sprague Dawley | 883 | 2270
3 h, 24 mg/kg, Male, Harlan Sprague Dawley | 1640 | 3250
3 h, 80 mg/kg, Female, Harlan Sprague Dawley | 3250 | 8230
6 h, 24 mg/kg, Male, Harlan Sprague Dawley | 1200 | 3160
6 h, 80 mg/kg, Female, Harlan Sprague Dawley | 6470 | 8110
12 h, 24 mg/kg, Male, Harlan Sprague Dawley | 930 | 2590
12 h, 80 mg/kg, Female, Harlan Sprague Dawley | 3150 | 9470

CC1CCCO1 (stereo not given) [2-Methyltetrahydrofuran]
dosed: 2-Methyltetrahydrofuran, 40 mg/kg, iv, Harlan Sprague Dawley
Details | concentration in brain, [2] [ng/mL] | concentration in plasma, [5] [ng/mL]
0.2 h, Male | 24700 | 35000
0.5 h, Female | 15400 | 27200
0.5 h, Male | 13500 | 32200
0.75 h, Male | 22000 | 24000
1.5 h, Male | 9210 | 14000
2 h, Female | 5700 | 7560
2 h, Male | 9630 | 10700
2 min, Female | 41700 | 73300
2 min, Male | 32400 | 50000
4 h, Female | 73.6 | 101
4 h, Male | 356 | 977
6 h, Female | – | 13.3
6 h, Male | 21.5 | 8.93
7 min, Male | 29700 | 46500
